{
  "source": "patent US9738634B2",
  "about": "“Heterocyclic amide compound and herbicide” (SYNGENTA PARTICIPATIONS AG, priority 2013, dated 2017)",
  "type_in_all_cases": "in vivo",
  "key": {"crabgrass [1]": {"tested_on": "crabgrass", "assay": "Test Example 3: weedkilling efficacy through soil treatment; D: crabgrass", "conditions": "treatment dosage 315 g/ha", "procedure,_shortened": "(§1)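 Crop and weed responses were judged three weeks after a uniform surface spray of the water-diluted emulsion at the given g/ha rate. Seeds sat beneath about 1.5 cm of sterilized diluvial soil, and boxes stood in a greenhouse at 25 to 30° C.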"}, "redroot pigweed [2]": {"tested_on": "redroot pigweed", "assay": "Test Example 3: weedkilling efficacy through soil treatment; L: redroot pigweed", "conditions": "treatment dosage 315 g/ha", "procedure,_shortened": "as §1"}, "Italian ryegrass [3]": {"tested_on": "Italian ryegrass", "assay": "Test Example 3: weedkilling efficacy through soil treatment; I: Italian ryegrass", "conditions": "treatment dosage 315 g/ha", "procedure,_shortened": "as §1"}, "Indian mallow [4]": {"tested_on": "Indian mallow", "assay": "Test Example 3: weedkilling efficacy through soil treatment; K: Indian mallow", "conditions": "treatment dosage 315 g/ha", "procedure,_shortened": "as §1"}, "bulrush [5]": {"tested_on": "bulrush", "assay": "Test Example 1: weedkilling efficacy, preemergent weed treatment in the submerged state; B: bulrush", "conditions": "treatment dosage 252 g/ha", "procedure,_shortened": "(§2)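 Emulsion diluted with water to the specified per-hectare dosage is applied onto flood water (4 cm) over alluvial soil on the sowing day, with barnyard grass, bulrush and pondweed seeded and rice (2.5-leaf) transplanted; plants grow at 25–30 °C and are rated at 3 weeks.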"}, "birds-eye speedwell [6]": {"tested_on": "birds-eye speedwell", "assay": "Test Example 3: weedkilling efficacy through soil treatment; p: birds-eye speedwell", "conditions": "treatment dosage 315 g/ha", "procedure,_shortened": "as §1"}, "bulrush [7]": {"tested_on": "bulrush", "assay": "Test Example 2: weedkilling efficacy, growth period weed treatment in the submerged state; B: bulrush", "conditions": "treatment dosage 252 g/ha", "procedure,_shortened": "(§3)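 First, alluvial soil in pots is flooded to 4 cm and mixed seed is sown. Next, plants grow in a greenhouse at 25 to 30° C until the 1-2 leaf stage. Then diluted emulsion is applied onto the water surface at the given g/ha rate, and injury is assessed after 3 weeks.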"}, "wheat [8]": {"tested_on": "wheat", "assay": "Test Example 4: foliar treatment, effect on crop; e: wheat", "conditions": "treatment dosage 315 g/ha", "procedure,_shortened": "(§4)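 Seeds are spot-sown into sterilized diluvial soil and covered with about 1.5 cm of soil. After 14 days' greenhouse growth at 25 to 30° C, plants are sprayed on stems and leaves with diluted emulsion at the stated g/ha rate, then scored at 3 weeks.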"}, "beet [9]": {"tested_on": "beet", "assay": "Test Example 4: foliar treatment, effect on crop; f: beet", "conditions": "treatment dosage 315 g/ha", "procedure,_shortened": "as §4"}, "fig-leafed goosefoot [10]": {"tested_on": "fig-leafed goosefoot", "assay": "Test Example 3: weedkilling efficacy through soil treatment; M: fig-leafed goosefoot", "conditions": "treatment dosage 315 g/ha", "procedure,_shortened": "as §1"}, "green foxtail [11]": {"tested_on": "green foxtail", "assay": "Test Example 3: weedkilling efficacy through soil treatment; E: green foxtail", "conditions": "treatment dosage 315 g/ha", "procedure,_shortened": "as §1"}, "black-grass [12]": {"tested_on": "black-grass", "assay": "Test Example 4: weedkilling efficacy by foliar treatment; H: black-grass", "conditions": "treatment dosage 315 g/ha", "procedure,_shortened": "as §4"}, "soybean [13]": {"tested_on": "soybean", "assay": "Test Example 4: foliar treatment, effect on crop; d: soybean", "conditions": "treatment dosage 315 g/ha", "procedure,_shortened": "as §4"}, "crabgrass [14]": {"tested_on": "crabgrass", "assay": "Test Example 4: weedkilling efficacy by foliar treatment; D: crabgrass", "conditions": "treatment dosage 315 g/ha", "procedure,_shortened": "as §4"}, "Italian ryegrass [15]": {"tested_on": "Italian ryegrass", "assay": "Test Example 4: weedkilling efficacy by foliar treatment; I: Italian ryegrass", "conditions": "treatment dosage 315 g/ha", "procedure,_shortened": "as §4"}, "black-grass [16]": {"tested_on": "black-grass", "assay": "Test Example 3: weedkilling efficacy through soil treatment; H: black-grass", "conditions": "treatment dosage 315 g/ha", "procedure,_shortened": "as §1"}, "beet [17]": {"tested_on": "beet", "assay": "Test Example 3: soil treatment, effect on crop; f: beet", "conditions": "treatment dosage 315 g/ha", "procedure,_shortened": "as §1"}, "wheat [18]": {"tested_on": "wheat", "assay": "Test Example 3: soil treatment, effect on crop; e: wheat", "conditions": "treatment dosage 315 g/ha", "procedure,_shortened": "as §1"}, "birds-eye speedwell [19]": {"tested_on": "birds-eye speedwell", "assay": "Test Example 4: weedkilling efficacy by foliar treatment; p: birds-eye speedwell", "conditions": "treatment dosage 315 g/ha", "procedure,_shortened": "as §4"}, "green foxtail [20]": {"tested_on": "green foxtail", "assay": "Test Example 4: weedkilling efficacy by foliar treatment; E: green foxtail", "conditions": "treatment dosage 315 g/ha", "procedure,_shortened": "as §4"}, "catchweed": {"tested_on": "catchweed", "assay": "Test Example 4: weedkilling efficacy by foliar treatment; O: catchweed", "conditions": "treatment dosage 315 g/ha", "procedure,_shortened": "as §4"}, "directly sown rice [21]": {"tested_on": "directly sown rice", "assay": "Test Example 4: foliar treatment, effect on crop; b: directly sown rice", "conditions": "treatment dosage 315 g/ha", "procedure,_shortened": "as §4"}, "chickweed [22]": {"tested_on": "chickweed", "assay": "Test Example 3: weedkilling efficacy through soil treatment; N: chickweed", "conditions": "treatment dosage 315 g/ha", "procedure,_shortened": "as §1"}, "directly sown rice [23]": {"tested_on": "directly sown rice", "assay": "Test Example 3: soil treatment, effect on crop; b: directly sown rice", "conditions": "treatment dosage 315 g/ha", "procedure,_shortened": "as §1"}, "soybean [24]": {"tested_on": "soybean", "assay": "Test Example 3: soil treatment, effect on crop; d: soybean", "conditions": "treatment dosage 315 g/ha", "procedure,_shortened": "as §1"}, "barnyard grass [25]": {"tested_on": "barnyard grass", "assay": "Test Example 2: weedkilling efficacy, growth period weed treatment in the submerged state; A: barnyard grass", "conditions": "treatment dosage 252 g/ha", "procedure,_shortened": "as §3"}, "transplanted rice": {"tested_on": "transplanted rice", "assay": "Test Example 1: preemergent weed treatment in the submerged state, effect on crop; a: transplanted rice", "conditions": "treatment dosage 252 g/ha", "procedure,_shortened": "as §2"}, "fig-leafed goosefoot [26]": {"tested_on": "fig-leafed goosefoot", "assay": "Test Example 4: weedkilling efficacy by foliar treatment; M: fig-leafed goosefoot", "conditions": "treatment dosage 315 g/ha", "procedure,_shortened": "as §4"}, "redroot pigweed [27]": {"tested_on": "redroot pigweed", "assay": "Test Example 4: weedkilling efficacy by foliar treatment; L: redroot pigweed", "conditions": "treatment dosage 315 g/ha", "procedure,_shortened": "as §4"}, "barnyard grass [28]": {"tested_on": "barnyard grass", "assay": "Test Example 1: weedkilling efficacy, preemergent weed treatment in the submerged state; A: barnyard grass", "conditions": "treatment dosage 252 g/ha", "procedure,_shortened": "as §2"}, "oval-leafed pondweed [29]": {"tested_on": "oval-leafed pondweed", "assay": "Test Example 2: weedkilling efficacy, growth period weed treatment in the submerged state; C: oval-leafed pondweed", "conditions": "treatment dosage 252 g/ha", "procedure,_shortened": "as §3"}, "chickweed [30]": {"tested_on": "chickweed", "assay": "Test Example 4: weedkilling efficacy by foliar treatment; N: chickweed", "conditions": "treatment dosage 315 g/ha", "procedure,_shortened": "as §4"}, "oval-leafed pondweed [31]": {"tested_on": "oval-leafed pondweed", "assay": "Test Example 1: weedkilling efficacy, preemergent weed treatment in the submerged state; C: oval-leafed pondweed", "conditions": "treatment dosage 252 g/ha", "procedure,_shortened": "as §2"}, "corn [32]": {"tested_on": "corn", "assay": "Test Example 3: soil treatment, effect on crop; c: corn", "conditions": "treatment dosage 315 g/ha", "procedure,_shortened": "as §1"}, "corn [33]": {"tested_on": "corn", "assay": "Test Example 4: foliar treatment, effect on crop; c: corn", "conditions": "treatment dosage 315 g/ha", "procedure,_shortened": "as §4"}, "Indian mallow [34]": {"tested_on": "Indian mallow", "assay": "Test Example 4: weedkilling efficacy by foliar treatment; K: Indian mallow", "conditions": "treatment dosage 315 g/ha", "procedure,_shortened": "as §4"}},
  "data": [
    {"smiles": "CC1=C(c2ccsc2)C(=O)N(C(C)(C)C(=O)Nc2cccc(Cl)n2)CO1", "note": "[B-2-05]", "values": [
      {"measurement": "D (crabgrass) weedkilling efficacy grade", "setting": "crabgrass [1]", "result": "5 (weed kill ratio 90% or more, (practically complete withering))"},
      {"measurement": "L (redroot pigweed) weedkilling efficacy grade", "setting": "redroot pigweed [2]", "result": "4 (weed kill ratio 70% or more, less than 90%)"},
      {"measurement": "I (Italian ryegrass) weedkilling efficacy grade", "setting": "Italian ryegrass [3]", "result": "5 (weed kill ratio 90% or more, (practically complete withering))"},
      {"measurement": "K (Indian mallow) weedkilling efficacy grade", "setting": "Indian mallow [4]", "result": "1 (weed kill ratio 5% or more, less than 20%)"},
      {"measurement": "B (bulrush) weedkilling efficacy grade", "setting": "bulrush [5]", "result": "5 (weed kill ratio 90% or more, (practically complete withering))"},
      {"measurement": "P (birds-eye speedwell) weedkilling efficacy grade", "setting": "birds-eye speedwell [6]", "result": "5 (weed kill ratio 90% or more, (practically complete withering))"},
      {"measurement": "B (bulrush) weedkilling efficacy grade", "setting": "bulrush [7]", "result": "5 (weed kill ratio 90% or more, (practically complete withering))"},
      {"measurement": "e (wheat) effect on crop grade", "setting": "wheat [8]", "result": "3 (weed kill ratio 40% or more, less than 70%)"},
      {"measurement": "f (beet) effect on crop grade", "setting": "beet [9]", "result": "4 (weed kill ratio 70% or more, less than 90%)"},
      {"measurement": "M (fig-leafed goosefoot) weedkilling efficacy grade", "setting": "fig-leafed goosefoot [10]", "result": "5 (weed kill ratio 90% or more, (practically complete withering))"},
      {"measurement": "E (green foxtail) weedkilling efficacy grade", "setting": "green foxtail [11]", "result": "5 (weed kill ratio 90% or more, (practically complete withering))"},
      {"measurement": "H (black-grass) weedkilling efficacy grade", "setting": "black-grass [12]", "result": "5 (weed kill ratio 90% or more, (practically complete withering))"},
      {"measurement": "d (soybean) effect on crop grade", "setting": "soybean [13]", "result": "3 (weed kill ratio 40% or more, less than 70%)"},
      {"measurement": "D (crabgrass) weedkilling efficacy grade", "setting": "crabgrass [14]", "result": "5 (weed kill ratio 90% or more, (practically complete withering))"},
      {"measurement": "I (Italian ryegrass) weedkilling efficacy grade", "setting": "Italian ryegrass [15]", "result": "5 (weed kill ratio 90% or more, (practically complete withering))"},
      {"measurement": "H (black-grass) weedkilling efficacy grade", "setting": "black-grass [16]", "result": "5 (weed kill ratio 90% or more, (practically complete withering))"},
      {"measurement": "f (beet) effect on crop grade", "setting": "beet [17]", "result": "5 (weed kill ratio 90% or more, (practically complete withering))"},
      {"measurement": "e (wheat) effect on crop grade", "setting": "wheat [18]", "result": "0 (weed kill ratio 5% or less (practically no effect))"},
      {"measurement": "P (birds-eye speedwell) weedkilling efficacy grade", "setting": "birds-eye speedwell [19]", "result": "5 (weed kill ratio 90% or more, (practically complete withering))"},
      {"measurement": "E (green foxtail) weedkilling efficacy grade", "setting": "green foxtail [20]", "result": "5 (weed kill ratio 90% or more, (practically complete withering))"},
      {"measurement": "O (catchweed) weedkilling efficacy grade", "setting": "catchweed", "result": "4 (weed kill ratio 70% or more, less than 90%)"},
      {"measurement": "b (directly sown rice) effect on crop grade", "setting": "directly sown rice [21]", "result": "4 (weed kill ratio 70% or more, less than 90%)"},
      {"measurement": "N (chickweed) weedkilling efficacy grade", "setting": "chickweed [22]", "result": "5 (weed kill ratio 90% or more, (practically complete withering))"},
      {"measurement": "b (directly sown rice) effect on crop grade", "setting": "directly sown rice [23]", "result": "3 (weed kill ratio 40% or more, less than 70%)"},
      {"measurement": "d (soybean) effect on crop grade", "setting": "soybean [24]", "result": "0 (weed kill ratio 5% or less (practically no effect))"},
      {"measurement": "A (barnyard grass) weedkilling efficacy grade", "setting": "barnyard grass [25]", "result": "5 (weed kill ratio 90% or more, (practically complete withering))"},
      {"measurement": "a (transplanted rice) effect on crop grade", "setting": "transplanted rice", "result": "0 (weed kill ratio 5% or less (practically no effect))"},
      {"measurement": "M (fig-leafed goosefoot) weedkilling efficacy grade", "setting": "fig-leafed goosefoot [26]", "result": "4 (weed kill ratio 70% or more, less than 90%)"},
      {"measurement": "L (redroot pigweed) weedkilling efficacy grade", "setting": "redroot pigweed [27]", "result": "3 (weed kill ratio 40% or more, less than 70%)"},
      {"measurement": "A (barnyard grass) weedkilling efficacy grade", "setting": "barnyard grass [28]", "result": "5 (weed kill ratio 90% or more, (practically complete withering))"},
      {"measurement": "C (oval-leafed pondweed) weedkilling efficacy grade", "setting": "oval-leafed pondweed [29]", "result": "5 (weed kill ratio 90% or more, (practically complete withering))"},
      {"measurement": "N (chickweed) weedkilling efficacy grade", "setting": "chickweed [30]", "result": "4 (weed kill ratio 70% or more, less than 90%)"},
      {"measurement": "C (oval-leafed pondweed) weedkilling efficacy grade", "setting": "oval-leafed pondweed [31]", "result": "5 (weed kill ratio 90% or more, (practically complete withering))"},
      {"measurement": "c (corn) effect on crop grade", "setting": "corn [32]", "result": "0 (weed kill ratio 5% or less (practically no effect))"},
      {"measurement": "c (corn) effect on crop grade", "setting": "corn [33]", "result": "4 (weed kill ratio 70% or more, less than 90%)"},
      {"measurement": "K (Indian mallow) weedkilling efficacy grade", "setting": "Indian mallow [34]", "result": "3 (weed kill ratio 40% or more, less than 70%)"}
    ]}
  ]
}
